Species on record: Rattus norvegicus
Assay: DrugMatrix - Regimen: Daily Repeat
Format: toxicity, organism-based, Sprague-Dawley
Design: regimen Daily Repeat, gender Male, age 6-8 weeks
Details: in vivo, po, route oral GAVAGE, vehicle .5 % CMC; for ABSOLUTE BASOPHIL / ABSOLUTE EOSINOPHIL / ABSOLUTE LYMPHOCYTE / ABSOLUTE MONOCYTE / ABSOLUTE SEGMENTED NEUTROPHIL / BASOPHIL / EOSINOPHIL / ERYTHROCYTE COUNT / HEMATOCRIT / HEMOGLOBIN / LEUKOCYTE COUNT / LYMPHOCYTE / MEAN CORPUSCULAR HEMOGLOBIN / MEAN CORPUSCULAR HEMOGLOBIN CONCENTRATION / MEAN CORPUSCULAR VOLUME / MONOCYTE / NEUTROPHIL / NUCLEATED RED BLOOD CELLS / PLATELET COUNT: tissue Blood; for ALANINE AMINOTRANSFERASE / ALBUMIN / ALKALINE PHOSPHATASE / ASPARTATE AMINOTRANSFERASE / BLOOD UREA NITROGEN / CARBON DIOXIDE / CHLORIDE / CHOLESTEROL / CREATINE PHOSPHOKINASE / CREATININE / GLUCOSE / LACTATE DEHYDROGENASE / LIPASE / PHOSPHORUS / POTASSIUM / SODIUM / TOTAL BILIRUBIN / TOTAL PROTEIN / URIC ACID: tissue Plasma
[1] = 0 mg/kg, 72 h, dose level Control, time 3 day
[2] = 0 mg/kg, 120 h, dose level Control, time 5 day
[3] = 16 mg/kg, 72 h, dose level Low, time 3 day

CCOC(=O)OC(C)OC1=C(C(=O)Nc2ccccn2)N(C)S(=O)(=O)c2ccccc21 (centres undefined) [AMPIROXICAM]
ABSOLUTE BASOPHIL [1]: 0 CELLS/uL
ABSOLUTE EOSINOPHIL [1]: 15.17 CELLS/uL
ABSOLUTE LYMPHOCYTE [1]: 10149.83 CELLS/uL
ABSOLUTE MONOCYTE [1]: 193.33 CELLS/uL
ABSOLUTE SEGMENTED NEUTROPHIL [1]: 1575 CELLS/uL
BASOPHIL [1]: 0%
EOSINOPHIL [1]: 0.17%
ERYTHROCYTE COUNT [1]: 5.53 x10E6/uL
HEMATOCRIT [1]: 34.7%
HEMOGLOBIN [1]: 12.78 G/DL
LEUKOCYTE COUNT [1]: 11.93 x10E3/uL
LYMPHOCYTE [1]: 85.5%
MEAN CORPUSCULAR HEMOGLOBIN [1]: 23.15 pg
MEAN CORPUSCULAR HEMOGLOBIN CONCENTRATION [1]: 36.9 G/DL
MEAN CORPUSCULAR VOLUME [1]: 62.82 fL
MONOCYTE [1]: 1.5%
NEUTROPHIL [1]: 12.83%
NUCLEATED RED BLOOD CELLS [1]: 0.5 /100WBC
PLATELET COUNT [1]: 994.17 x10E3/uL
ALANINE AMINOTRANSFERASE [1]: 48.17 u/L
ALBUMIN [1]: 4.37 G/DL
ALKALINE PHOSPHATASE [1]: 436.5 u/L
ASPARTATE AMINOTRANSFERASE [1]: 83.17 u/L
BLOOD UREA NITROGEN [1]: 14.67 mg/dL
CARBON DIOXIDE [1]: 30.83 mmol/L
CHLORIDE [1]: 99.17 MEQ/L
CHOLESTEROL [1]: 86.33 mg/dL
CREATINE PHOSPHOKINASE [1]: 243.33 u/L
CREATININE [1]: 0.25 mg/dL
GLUCOSE [1]: 158 mg/dL
LACTATE DEHYDROGENASE [1]: 262.33 u/L
LIPASE [1]: 11 u/L
PHOSPHORUS [1]: 12.07 mg/dL
POTASSIUM [1]: 6.52 MEQ/L
SODIUM [1]: 142.45 MEQ/L
TOTAL BILIRUBIN [1]: 0.17 mg/dL
TOTAL PROTEIN [1]: 6.25 G/DL
URIC ACID [1]: 1.42 mg/dL
ABSOLUTE BASOPHIL [2]: 0 CELLS/uL
ABSOLUTE EOSINOPHIL [2]: 0 CELLS/uL
ABSOLUTE LYMPHOCYTE [2]: 10076.67 CELLS/uL
ABSOLUTE MONOCYTE [2]: 124 CELLS/uL
ABSOLUTE SEGMENTED NEUTROPHIL [2]: 966 CELLS/uL
BASOPHIL [2]: 0%
EOSINOPHIL [2]: 0%
ERYTHROCYTE COUNT [2]: 5.57 x10E6/uL
HEMATOCRIT [2]: 33.37%
HEMOGLOBIN [2]: 12.73 G/DL
LEUKOCYTE COUNT [2]: 11.17 x10E3/uL
LYMPHOCYTE [2]: 90.33%
MEAN CORPUSCULAR HEMOGLOBIN [2]: 22.9 pg
MEAN CORPUSCULAR HEMOGLOBIN CONCENTRATION [2]: 38.18 G/DL
MEAN CORPUSCULAR VOLUME [2]: 59.97 fL
MONOCYTE [2]: 1%
NEUTROPHIL [2]: 8.67%
NUCLEATED RED BLOOD CELLS [2]: 0 /100WBC
PLATELET COUNT [2]: 1078 x10E3/uL
ALANINE AMINOTRANSFERASE [2]: 37.17 u/L
ALBUMIN [2]: 4.2 G/DL
ALKALINE PHOSPHATASE [2]: 322.17 u/L
ASPARTATE AMINOTRANSFERASE [2]: 67.67 u/L
BLOOD UREA NITROGEN [2]: 14 mg/dL
CARBON DIOXIDE [2]: 27.67 mmol/L
CHLORIDE [2]: 102.17 MEQ/L
CHOLESTEROL [2]: 67.67 mg/dL
CREATINE PHOSPHOKINASE [2]: 171.83 u/L
CREATININE [2]: 0.27 mg/dL
GLUCOSE [2]: 172 mg/dL
LACTATE DEHYDROGENASE [2]: 85.33 u/L
LIPASE [2]: 8.67 u/L
PHOSPHORUS [2]: 12 mg/dL
POTASSIUM [2]: 6.09 MEQ/L
SODIUM [2]: 144.82 MEQ/L
TOTAL BILIRUBIN [2]: 0.13 mg/dL
TOTAL PROTEIN [2]: 6.07 G/DL
URIC ACID [2]: 2.13 mg/dL
ABSOLUTE BASOPHIL [3]: 0 CELLS/uL
ABSOLUTE EOSINOPHIL [3]: 0 CELLS/uL
ABSOLUTE LYMPHOCYTE [3]: 13036.33 CELLS/uL
ABSOLUTE MONOCYTE [3]: 91.33 CELLS/uL
ABSOLUTE SEGMENTED NEUTROPHIL [3]: 1372.33 CELLS/uL
BASOPHIL [3]: 0%
EOSINOPHIL [3]: 0%
ERYTHROCYTE COUNT [3]: 5.36 x10E6/uL
HEMATOCRIT [3]: 33.57%
HEMOGLOBIN [3]: 12.5 G/DL
LEUKOCYTE COUNT [3]: 14.5 x10E3/uL
LYMPHOCYTE [3]: 89.33%
MEAN CORPUSCULAR HEMOGLOBIN [3]: 23.33 pg
MEAN CORPUSCULAR HEMOGLOBIN CONCENTRATION [3]: 37.23 G/DL
MEAN CORPUSCULAR VOLUME [3]: 62.67 fL
MONOCYTE [3]: 0.67%
NEUTROPHIL [3]: 10%
NUCLEATED RED BLOOD CELLS [3]: 0 /100WBC
PLATELET COUNT [3]: 1061.33 x10E3/uL
ALANINE AMINOTRANSFERASE [3]: 57.33 u/L
ALBUMIN [3]: 4.3 G/DL
ALKALINE PHOSPHATASE [3]: 431 u/L
ASPARTATE AMINOTRANSFERASE [3]: 100.67 u/L
BLOOD UREA NITROGEN [3]: 12.67 mg/dL
CARBON DIOXIDE [3]: 32.33 mmol/L
CHLORIDE [3]: 101.33 MEQ/L
CHOLESTEROL [3]: 86.33 mg/dL
CREATINE PHOSPHOKINASE [3]: 214.33 u/L
CREATININE [3]: 0.25 mg/dL
GLUCOSE [3]: 155.33 mg/dL
LACTATE DEHYDROGENASE [3]: 113.33 u/L
LIPASE [3]: 11.67 u/L
PHOSPHORUS [3]: 11.83 mg/dL
POTASSIUM [3]: 6.74 MEQ/L
SODIUM [3]: 145.43 MEQ/L
TOTAL BILIRUBIN [3]: 0.13 mg/dL
TOTAL PROTEIN [3]: 6.13 G/DL
URIC ACID [3]: 1.73 mg/dL
